For experiment [1], the system named is Actinomyces naeslundii. The settings on record: A naeslundii, BHI.
Experimental: (§1) Late exponential growth phase liquid cultures were prepared by transferring the respective bacterium from blood agar plates to BHI and overnight incubation at 37° C. in an anaerobic atmosphere for A. viscosus, V. parvula, F. nucleatum, P. gingivalis, P. intermedia, T forsythia, A. naeslundii, and C. sputigena, and in a 5% CO2 environment for S. salivarius, S. sanguinis, S. mitis, A. actinomycetemcomitans, S. mutans, S. sobrinus and S. gordonii. Overnight cultures were transferred to BHI and adjusted to a concentration of 1×10^7 CFU/ml (colony forming units per ml) by measuring the optical density at 600 nm (OD600) (BioRad SmartSpec 3000). For each strain, 200 μl of the bacterial suspension was added to a 96-well plate containing 20 μl of the respective carboxylic acids. Final concentrations of the carboxylic acids were set to 5, 10, 20 and 25 μmol/ml. […] Plates were incubated as previously described.
(§2) For each combination of bacterium/carboxylic acid, and for each of their respective controls (i.e. the particular bacterium in the nutritionally rich medium with no carboxylic acid), the optical density was measured at 630 nm (OD630) at 0 h, 24 h and 48 h (Thermo Scientific Multiskan Ascent). Additionally, the OD630 for combinations of bacterium/carboxylic acid grown in a 5% CO2 environment were also measured every hour between 0 h and 9 h.
(§3) The experiment was carried out on three different days (thus providing 3 biological replicas) and on each day the experiment was carried out in quadruple (thus providing 4 technical replicas) for each combination of bacterium with carboxylic acid and for each control. For each day and for each combination, the average (mean) of the values obtained (as detailed above) for the four technical replicas was calculated to provide a single value for each combination on each day.
The subject of the next experiment is Streptococcus sobrinus. The settings on record: S sobrinus, BHI.
Another experiment deals with Tannerella forsythia. The settings on record: T forsythia, BHI.
The subject of the next experiment is Porphyromonas gingivalis. Put plainly: Metabolic activity, Biolog phenotype microarray. Type of experiment: cell-based. The settings on record: P gingivalis.
The next experiment deals with Streptococcus gordonii. Put plainly: Metabolic activity, Biolog phenotype microarray. Type of experiment: cell-based. The settings on record: S gordonii.
Experiment [2] deals with Actinomyces naeslundii. Put plainly: Metabolic activity, Biolog phenotype microarray. In kind it is cell-based. The settings on record: A naeslundii.
The test system of the next experiment is Prevotella intermedia. Description: Metabolic activity, Biolog phenotype microarray. Type of experiment: cell-based. The settings on record: P intermedia.

Like-named read-outs stand apart in the source and are kept apart here.

Experimental for Streptococcus sobrinus: as §1, §2, §3
Experimental for Tannerella forsythia: as §1, §2, §3

Consider `N[C@@H](CC(=O)O)C(=O)O` [L-aspartic acid], for which the “extent of growth, maximal OD630 over 48 hr divided by maximal OD of control (control = 1)” value in the experiment with Actinomyces naeslundii [1] (5 μmol/ml) is 0.8893; in the experiment on Actinomyces naeslundii [1] (10 μmol/ml), 0.8774; in the experiment with Actinomyces naeslundii [1] (20 μmol/ml), 0.9021; with Actinomyces naeslundii [1] (25 μmol/ml), 0.8435; with Streptococcus sobrinus (5 μmol/ml), 0.9714; in the experiment on Streptococcus sobrinus (10 μmol/ml), 0.9741. Further, the “extent of growth, maximal OD630 over 48 hr divided by maximal OD of control (control = 1)” value came out at 0.9458 in the experiment with Streptococcus sobrinus (20 μmol/ml); 0.9644 in the experiment with Streptococcus sobrinus (25 μmol/ml); 0.9947 in the experiment on Tannerella forsythia (5 μmol/ml); 0.9717 in the experiment on Tannerella forsythia (10 μmol/ml); 1.0111 with Tannerella forsythia (20 μmol/ml); 0.9935 in the experiment with Tannerella forsythia (25 μmol/ml). Further, the “metabolic activity, OD at 492 nm divided by OD of control (control = 1)” value (from here on “metabolic activity, OD at 492 nm divided”) was found to be 0.8910 in the experiment on Porphyromonas gingivalis (24 hrs); 0.9017 in the experiment on Porphyromonas gingivalis (48 hrs); 0.8729 in the experiment with Streptococcus gordonii (24 hrs); 0.8488 with Streptococcus gordonii (48 hrs); 0.8814 in the experiment on Actinomyces naeslundii [2] (24 hrs); 0.8283 in the experiment on Actinomyces naeslundii [2] (48 hrs). In addition, the “metabolic activity, OD at 492 nm divided” value in the experiment with Prevotella intermedia (24 hrs) was 0.9390; in the experiment with Prevotella intermedia (48 hrs), 0.9154.
In the case of `O=C(O)CCC(=O)O` [Succinic acid, succinic acid], the “extent of growth, maximal OD630 over 48 hr divided by maximal OD of control (control = 1)” value with Actinomyces naeslundii [1] (5 μmol/ml) is recorded as 0.9975; with Actinomyces naeslundii [1] (10 μmol/ml), 0.5885; with Actinomyces naeslundii [1] (20 μmol/ml), 0.2228; in the experiment on Actinomyces naeslundii [1] (25 μmol/ml) it was 0.1840; in the experiment with Streptococcus sobrinus (5 μmol/ml), 0.9460; in the experiment on Streptococcus sobrinus (10 μmol/ml) it was 0.8269. Also, the “extent of growth, maximal OD630 over 48 hr divided by maximal OD of control (control = 1)” value in the experiment on Streptococcus sobrinus (20 μmol/ml) was determined as 0.4744; in the experiment with Streptococcus sobrinus (25 μmol/ml) it was 0.2284; in the experiment on Tannerella forsythia (5 μmol/ml), 0.9040; in the experiment with Tannerella forsythia (10 μmol/ml), 0.7937; with Tannerella forsythia (20 μmol/ml) it was 0.7975; with Tannerella forsythia (25 μmol/ml) it was 0.8103. Also, the “metabolic activity, OD at 492 nm divided” value with Porphyromonas gingivalis (24 hrs) amounted to 0.8726; with Porphyromonas gingivalis (48 hrs), 0.9109; in the experiment with Streptococcus gordonii (24 hrs), 0.7960; in the experiment on Streptococcus gordonii (48 hrs), 0.8167; with Actinomyces naeslundii [2] (24 hrs) it was 0.9767; in the experiment on Actinomyces naeslundii [2] (48 hrs) it was 0.9858. Also, the “metabolic activity, OD at 492 nm divided” value with Prevotella intermedia (24 hrs) is on record as 1.0677; in the experiment on Prevotella intermedia (48 hrs) it was 1.1361.

These data come from patent US10945932B2, “Prebiotic oral care compositions containing carboxylic acids” (COLGATE-PALMOLIVE COMPANY, priority 2013, dated 2021).
